# In patent publication US20220007644A1, “COMPOSITIONS COMPRISING PYRIDINE CARBOXYLATE HERBICIDES WITH PHOTOSYSTEM II AND OPTIONAL HPPD INHIBITOR HERBICIDES” (Corteva Agriscience LLC, priority 2018, published 2022):
# “And” between values parts separate entries of the source, which are not always exact repeats. Identical values can stand only once.
# Tests used:
# Format in all cases: in vivo
# [1] = test system: TRZAS, Triticum aestivum (spring wheat); experiment: Greenhouse postemergence phytotoxicity on crop (visual injury, 20-22 d)
# Source text: (§1) Greenhouse Trial Methodology—Evaluation of Postemergence Herbicidal Effect
# (§2) Seeds of the desired test plant species were planted in a 90:10% v/v (volume/volume) mixture of PRO-MIX® BX (Premier Tech Horticulture, Quakertown, Pa., USA) and PROFILE®GREENS GRADE™ (Profile Products LLC, Buffalo Grove, Ill., USA) planting mixture, which typically has a pH of 5.2 to 6.2 and an organic matter content of at least 50 percent, in plastic pots with a surface area of 103.2 square centimeters (cm^2). In some aspects, to help ensure good germination and healthy plants, a fungicide treatment and/or other chemical or physical treatment was applied. The plants were grown for 7-36 days (d) in a greenhouse with an approximate 14-hour (h) photoperiod which was maintained at about 23° C. during the day and 22° C. during the night. Nutrients and water were added on a regular basis and supplemental lighting was provided with overhead metal halide 1000-Watt lamps as necessary. The plants were employed for testing when they reached the second or third true leaf stage.
# (§3) Emulsifiable concentrates of each of each pyridine carboxylate herbicide (Compound A or Compound B) were prepared at 100 grams acid equivalent per liter (g ae/L). The emulsifiable concentrates also included a safener, cloquintocet-mexyl, at 120 grams active ingredient per liter (g ai/L), unless otherwise noted below. An aliquot of each emulsifiable concentrate was placed in a 25 mL glass vial and diluted with an aqueous mixture of 1.25% (v/v) ACTIROB® B esterified rapeseed oil (Bayer Crop Science, Research Triangle Park, N.C., USA) or MSO® Concentrate with LECI-TECH® methylated soybean oil (Loveland Products, Loveland, Colo., USA) to obtain concentrated stock solutions at the highest application rate for each herbicide, based upon a 12 milliliter (mL) application volume at a rate of 187 liters per hectare (L/ha). The concentrated stock solutions were further diluted with an aqueous mixture of 1.25% v/v ACTIROB® B or MSO® Concentrate with LECI-TECH® to obtain stock solutions at reduced application rates for each herbicide. Spray solutions of the herbicide combinations (Compound A or Compound B plus PS-II herbicide and optional HPPD herbicide) were prepared by adding weighed amounts or aliquots of the PS-II herbicide and optional HPPD herbicide to the stock solutions of Compound A or Compound B to form 12-mL spray solutions in two- or three-way combinations.
# (§4) The spray solutions were applied to the plant material with an overhead Mandel track sprayer equipped with 8002E nozzles calibrated to deliver 187 L/ha over an application area of 0.503 square meters (m^2) at a spray height of 18 inches ([…] centimeters (cm)) above the average plant canopy. Control plants were sprayed in the same manner with the solvent blank. All pyridine carboxylate herbicide (component a) application rates are given as “g ae/ha” and all PS II inhibitor herbicide (component b) and HPPD inhibitor herbicide (component c) application rates are given as “g ai/ha.”
# (§5) The treated plants and control plants were placed in a greenhouse as described above and watered by sub-irrigation to prevent wash-off of the test compounds. After 20-22 d, the condition of the test plants as compared with that of the control plants was determined visually and scored on a scale of 0 to 100 percent where 0 corresponds to no injury and 100 corresponds to complete kill.
# [2] = test system: HORVS, Hordeum vulgare (spring barley); experiment: as above
# Source text: as §1, §2, §3, §4, §5
# [3] = test system: ZEAMX, Zea mays (maize); experiment: as above; settings: Compound A 10 g/ha
# Source text: as §1, §2, §3, §4, §5
# [4] = test system: SETFA, Setaria faberi (giant foxtail); experiment: Greenhouse postemergence herbicidal effect (visual injury, 20-22 d); settings: SETFA, Compound A 10 g/ha
# Source text: as §1, §2, §3, §4, §5
# [5] = test system: ALOMY, Alopecurus myosuroides (blackgrass); experiment: as above
# Source text: as §1, §2, §3, §4, §5
# [6] = test system: STEME, Stellaria media (chickweed); experiment: as above; settings: STEME, Compound A 10 g/ha
# Source text: as §1, §2, §3, §4, §5
# [7] = test system: SORVU, Sorghum vulgare (grain sorghum); experiment: as above
# Source text: as §1, §2, §3, §4, §5
# [8] = test system: CHEAL, Chenopodium album L. (common lambsquarters); experiment: as above
# Source text: as §1, §2, §3, §4, §5
# [9] = test system: LEFCH, Leptochloa chinensis (Chinese sprangletop); experiment: as above; settings: Compound A 10 g/ha, without cloquintocet-mexyl safener
# Source text: as §1, §2, §3, §4, §5
# [10] = test system: POLCO, Polygonum convolvulus (wild buckwheat); experiment: as above; settings: POLCO, Compound A 10 g/ha
# Source text: as §1, §2, §3, §4, §5
# [11] = test system: HELAN, Helianthus annuus (common sunflower); experiment: as above; settings: Compound A 10 g/ha, without cloquintocet-mexyl safener
# Source text: as §1, §2, §3, §4, §5
# [12] = test system: BRSNN, Brassica napus (spring rape); experiment: as above
# Source text: as §1, §2, §3, §4, §5
# [13] = test system: RUMOB, Rumex obtusifolius (broad-leaf dock); experiment: as above; settings: Compound A 10 g/ha
# Source text: as §1, §2, §3, §4, §5
# [14] = test system: VIOTR, Viola tricolor (wild pansy); experiment: as above
# Source text: as §1, §2, §3, §4, §5
# [15] = test system: SASKR, Salsola kali (Russian thistle); experiment: as above
# Source text: as §1, §2, §3, §4, §5
# [16] = test system: DIGSA, Digitaria sanguinalis (large crabgrass); experiment: as above; settings: Compound A 10 g/ha, without cloquintocet-mexyl safener
# Source text: as §1, §2, §3, §4, §5
# [17] = test system: CIRAR, Cirsium arvense (Canada thistle); experiment: as above; settings: for % visual injury, Obs: CIRAR, Compound A 10 g/ha
# Source text: as §1, §2, §3, §4, §5
# [18] = test system: GLXMA, Glycine max (soybean); experiment: as above; settings: for % visual injury, Obs: GLXMA, Compound A 10 g/ha
# Source text: as §1, §2, §3, §4, §5
# [19] = test system: BRSNW, Brassica napus (winter rape); experiment: as above
# Source text: as §1, §2, §3, §4, §5
# [20] = without cloquintocet-mexyl safener
smiles,measurement,setting,value
"N#CCOC(=O)c1nc(-c2ccc3cc[nH]c3c2F)c(F)c(N)c1Cl [Compound A, cyanomethyl 4-amino-3-chloro-5-fluoro-6-(7-fluoro-1H-indol-6-yl)pyridine-2-carboxylate]",visual injury,[1]; 7.5 g ae/ha alone,0%
same,visual injury,[1]; 10 g ae/ha alone,0%
same,"% visual injury, Obs","[1]; TRZAS, Compound A 10 g/ha",3%
same,visual injury,[2]; 7.5 g ae/ha alone,0% and 8%
same,visual injury,[2]; 10 g ae/ha alone,0%
same,"% visual injury, Obs",[3],0%
same,"% visual injury, Obs",[4],80%
same,"% visual injury, Obs",[4]; [20],0%
same,visual injury,[5]; 7.5 g ae/ha alone,0%
same,visual injury,[5]; 10 g ae/ha alone,0%
same,"% visual injury, Obs","[5]; ALOMY, Compound A 10 g/ha, without cloquintocet-mexyl safener",0%
same,"% visual injury, Obs",[6],90%
same,"% visual injury, Obs",[6]; [20],88%
same,visual injury,[7]; 7.5 g ae/ha alone,0%
same,visual injury,[7]; 10 g ae/ha alone,0%
same,"% visual injury, Obs","[7]; SORVU, Compound A 10 g/ha, without cloquintocet-mexyl safener",0%
same,visual injury,[8]; 7.5 g ae/ha alone,88% and 70% and 75%
same,visual injury,[8]; 10 g ae/ha alone,93% and 83% and 78% and 80%
same,"% visual injury, Obs",[9],0%
same,"% visual injury, Obs",[10],93%
same,"% visual injury, Obs",[10]; [20],78%
same,"% visual injury, Obs",[11],100%
same,visual injury,[12]; 10 g ae/ha alone,60% and 45% and 73%
same,"% visual injury, Obs","[12]; BRSNN, Compound A 10 g/ha",65%
same,"% visual injury, Obs",[13],13%
same,"% visual injury, Obs",[13]; [20],35%
same,visual injury,[14]; 7.5 g ae/ha alone,45%
same,visual injury,[14]; 10 g ae/ha alone,15%
same,"% visual injury, Obs","[14]; VIOTR, Compound A 10 g/ha, without cloquintocet-mexyl safener",15%
same,visual injury,[15]; 7.5 g ae/ha alone,60% and 45%
same,visual injury,[15]; 10 g ae/ha alone,63% and 60%
same,"% visual injury, Obs",[16],8%
same,visual injury,[17]; 10 g ae/ha alone,40% and 60% and 30% and 55%
same,"% visual injury, Obs",[17],60%
same,"% visual injury, Obs",[17]; [20],28%
same,visual injury,[18]; 7.5 g ae/ha alone,80%
same,visual injury,[18]; 10 g ae/ha alone,90%
same,"% visual injury, Obs",[18],90%
same,"% visual injury, Obs",[18]; [20],85%
same,visual injury,[19]; 7.5 g ae/ha alone,35% and 63%
same,visual injury,[19]; 10 g ae/ha alone,43% and 68% and 40%
same,"% visual injury, Obs","[19]; BRSNW, Compound A 10 g/ha, without cloquintocet-mexyl safener",65%
